This is an account of results in the supplement of paper PMC10307832.

What all share (experiment): relative viability (nuclei count vs DMSO), 5 days (fraction); higher = more cells survive
Compound in the test “Crenolanib + Crizotinib”: CC1(COc2ccc3c(c2)ncn3-c2ccc3cccc(N4CCC(N)CC4)c3n2)COC1 [Crenolanib] + C[C@@H](Oc1cc(-c2cnn(C3CCNCC3)c2)cnc1N)c1c(Cl)ccc(F)c1Cl [Crizotinib] (partner 1 µM)
An outline of the steps:
(§1)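 After 5 days of treatment, lung cancer cells in 1536-well plates were fixed and stained in a single step (final 0.05% Triton X-100, 1% formaldehyde, 1 ug/ml Hoechst) and their nuclei counted on 4× images. Treatment had been applied by pin tool the day after seeding as one drug alone or as a fixed anchor-drug dose with five library-drug doses (not always all listed) in √10 steps. Relative viability is the nuclei count of treated wells divided by that of vehicle wells, and values are medians of duplicate plates.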

Compound in the test “Crenolanib + Bortezomib”: CC1(COc2ccc3c(c2)ncn3-c2ccc3cccc(N4CCC(N)CC4)c3n2)COC1 [Crenolanib] + CC(C)C[C@H](NC(=O)[C@H](Cc1ccccc1)NC(=O)c1cnccn1)B(O)O [Bortezomib] (partner 0.002 µM)
An outline of the steps: as §1

Compound in the test “Tivantinib + Bortezomib”: O=C1NC(=O)[C@@H](c2cn3c4c(cccc24)CCC3)[C@@H]1c1c[nH]c2ccccc12 [Tivantinib] + CC(C)C[C@H](NC(=O)[C@H](Cc1ccccc1)NC(=O)c1cnccn1)B(O)O [Bortezomib] (partner 0.002 µM)
An outline of the steps: as §1

Compound in the test “Tivantinib + AZD7762”: O=C1NC(=O)[C@@H](c2cn3c4c(cccc24)CCC3)[C@@H]1c1c[nH]c2ccccc12 [Tivantinib] + NC(=O)Nc1cc(-c2cccc(F)c2)sc1C(=O)N[C@H]1CCCNC1 [AZD7762] (partner 0.2 µM)
An outline of the steps:
as §1

In the case of NCI-H1355, the relative viability came to 1.15 with Crenolanib + Crizotinib (first compound 0.01 µM); 1.07 with Crenolanib + Crizotinib (first compound 0.03162 µM); 0.973 with Crenolanib + Crizotinib (first compound 0.1 µM); 1.06 with Crenolanib + Crizotinib (first compound 0.3162 µM); 0.894 with Crenolanib + Crizotinib (first compound 1 µM); 1.33 in the test with Crenolanib + Bortezomib (first compound 0.01 µM). In addition, the relative viability in the test with Crenolanib + Bortezomib (first compound 0.03162 µM) worked out at 1.15; with Crenolanib + Bortezomib (first compound 0.1 µM) it was 1.3; with Crenolanib + Bortezomib (first compound 0.3162 µM), 1.37; with Crenolanib + Bortezomib (first compound 1 µM), 0.951; with Tivantinib + Bortezomib (first compound 0.01 µM) it was 1.31; with Tivantinib + Bortezomib (first compound 0.03162 µM) it was 1.18. Moreover, the relative viability amounted to 1.17 with Tivantinib + Bortezomib (first compound 0.1 µM); 1.21 with Tivantinib + Bortezomib (first compound 0.3162 µM); 0.756 in the test with Tivantinib + AZD7762 (first compound 0.01 µM); 0.819 with Tivantinib + AZD7762 (first compound 0.03162 µM); 0.794 with Tivantinib + AZD7762 (first compound 0.1 µM); 0.637 with Tivantinib + AZD7762 (first compound 0.3162 µM).

On to NCI-H838, for which the relative viability in the test with Crenolanib + Crizotinib (first compound 0.01 µM) turned out to be 0.883; in the test with Crenolanib + Crizotinib (first compound 0.03162 µM) it was 0.855; with Crenolanib + Crizotinib (first compound 0.1 µM) it was 0.821; with Crenolanib + Crizotinib (first compound 0.3162 µM), 0.872; with Crenolanib + Crizotinib (first compound 1 µM), 0.772; in the test with Crenolanib + Bortezomib (first compound 0.01 µM), 0.774. Also, the relative viability with Crenolanib + Bortezomib (first compound 0.03162 µM) turned out to be 0.796; with Crenolanib + Bortezomib (first compound 0.1 µM) it was 0.984; with Crenolanib + Bortezomib (first compound 0.3162 µM) it was 0.77; with Crenolanib + Bortezomib (first compound 1 µM), 0.566; with Tivantinib + Bortezomib (first compound 0.01 µM), 0.712; with Tivantinib + Bortezomib (first compound 0.03162 µM) it was 0.61. The relative viability in the test with Tivantinib + Bortezomib (first compound 0.1 µM) is 0.683; in the test with Tivantinib + Bortezomib (first compound 0.3162 µM) it was 0.786; with Tivantinib + AZD7762 (first compound 0.01 µM), 1; with Tivantinib + AZD7762 (first compound 0.03162 µM), 0.973; with Tivantinib + AZD7762 (first compound 0.1 µM) it was 0.872; in the test with Tivantinib + AZD7762 (first compound 0.3162 µM), 0.906.

With NCI-H2126, the relative viability with Crenolanib + Crizotinib (first compound 0.01 µM) amounted to 1.05; in the test with Crenolanib + Crizotinib (first compound 0.03162 µM) it was 1.04; in the test with Crenolanib + Crizotinib (first compound 0.1 µM), 0.978; with Crenolanib + Crizotinib (first compound 0.3162 µM), 1.09; with Crenolanib + Crizotinib (first compound 1 µM), 1.02; in the test with Crenolanib + Bortezomib (first compound 0.01 µM), 1.09. The relative viability in the test with Crenolanib + Bortezomib (first compound 0.03162 µM) was found to be 1.17; in the test with Crenolanib + Bortezomib (first compound 0.1 µM), 1.13; with Crenolanib + Bortezomib (first compound 0.3162 µM), 1.15; with Crenolanib + Bortezomib (first compound 1 µM), 1.1; in the test with Tivantinib + Bortezomib (first compound 0.01 µM) it was 1.09; with Tivantinib + Bortezomib (first compound 0.03162 µM), 1.11. The relative viability with Tivantinib + Bortezomib (first compound 0.1 µM) was found to be 1.09; with Tivantinib + Bortezomib (first compound 0.3162 µM), 1.06; in the test with Tivantinib + AZD7762 (first compound 0.01 µM) it was 1; with Tivantinib + AZD7762 (first compound 0.03162 µM), 1.03; in the test with Tivantinib + AZD7762 (first compound 0.1 µM), 0.94; with Tivantinib + AZD7762 (first compound 0.3162 µM), 1.04.

On to BEN, for which the relative viability in the test with Crenolanib + Crizotinib (first compound 0.01 µM) was 0.89; in the test with Crenolanib + Crizotinib (first compound 0.03162 µM) it was 0.839; with Crenolanib + Crizotinib (first compound 0.1 µM) it was 0.863; in the test with Crenolanib + Crizotinib (first compound 0.3162 µM), 0.763; in the test with Crenolanib + Crizotinib (first compound 1 µM), 0.847; with Crenolanib + Bortezomib (first compound 0.01 µM), 0.821. Moreover, the relative viability with Crenolanib + Bortezomib (first compound 0.03162 µM) was determined as 0.644; with Crenolanib + Bortezomib (first compound 0.1 µM) it was 0.733; in the test with Crenolanib + Bortezomib (first compound 0.3162 µM) it was 0.881; with Crenolanib + Bortezomib (first compound 1 µM) it was 0.761; in the test with Tivantinib + Bortezomib (first compound 0.01 µM), 0.75; with Tivantinib + Bortezomib (first compound 0.03162 µM), 0.561. For the same cell line, the relative viability with Tivantinib + Bortezomib (first compound 0.1 µM) was determined as 0.744; with Tivantinib + Bortezomib (first compound 0.3162 µM) it was 0.824; with Tivantinib + AZD7762 (first compound 0.01 µM), 0.705; with Tivantinib + AZD7762 (first compound 0.03162 µM), 0.535; in the test with Tivantinib + AZD7762 (first compound 0.1 µM), 0.617; in the test with Tivantinib + AZD7762 (first compound 0.3162 µM) it was 0.581.

On to LCLC-97TM1, for which the relative viability is 0.42 with Crenolanib + Crizotinib (first compound 0.01 µM); 0.355 in the test with Crenolanib + Crizotinib (first compound 0.03162 µM); 0.479 with Crenolanib + Crizotinib (first compound 0.1 µM); 0.324 with Crenolanib + Crizotinib (first compound 0.3162 µM); 0.457 with Crenolanib + Crizotinib (first compound 1 µM); 0.454 in the test with Crenolanib + Bortezomib (first compound 0.01 µM). The relative viability with Crenolanib + Bortezomib (first compound 0.03162 µM) was determined as 0.396; with Crenolanib + Bortezomib (first compound 0.1 µM) it was 0.69; with Crenolanib + Bortezomib (first compound 0.3162 µM) it was 0.896; in the test with Crenolanib + Bortezomib (first compound 1 µM), 0.699; with Tivantinib + Bortezomib (first compound 0.01 µM), 0.742; in the test with Tivantinib + Bortezomib (first compound 0.03162 µM), 0.734. Further, the relative viability stood at 0.517 with Tivantinib + Bortezomib (first compound 0.1 µM); 0.764 with Tivantinib + Bortezomib (first compound 0.3162 µM); 0.268 in the test with Tivantinib + AZD7762 (first compound 0.01 µM); 0.311 in the test with Tivantinib + AZD7762 (first compound 0.03162 µM); 0.197 with Tivantinib + AZD7762 (first compound 0.1 µM); 0.25 in the test with Tivantinib + AZD7762 (first compound 0.3162 µM).

On to EKVX, for which the relative viability in the test with Crenolanib + Crizotinib (first compound 0.01 µM) was 1.06; with Crenolanib + Crizotinib (first compound 0.03162 µM), 0.756; in the test with Crenolanib + Crizotinib (first compound 0.1 µM), 0.899; with Crenolanib + Crizotinib (first compound 0.3162 µM), 1.06; with Crenolanib + Crizotinib (first compound 1 µM), 1; with Crenolanib + Bortezomib (first compound 0.01 µM), 1.03. In addition, the relative viability turned out to be 0.994 with Crenolanib + Bortezomib (first compound 0.03162 µM); 0.974 in the test with Crenolanib + Bortezomib (first compound 0.1 µM); 1.2 with Crenolanib + Bortezomib (first compound 0.3162 µM); 1.08 with Crenolanib + Bortezomib (first compound 1 µM); 1.22 with Tivantinib + Bortezomib (first compound 0.01 µM); 1 in the test with Tivantinib + Bortezomib (first compound 0.03162 µM). Besides, the relative viability with Tivantinib + Bortezomib (first compound 0.1 µM) turned out to be 0.928; in the test with Tivantinib + Bortezomib (first compound 0.3162 µM), 0.6; with Tivantinib + AZD7762 (first compound 0.01 µM), 0.59; with Tivantinib + AZD7762 (first compound 0.03162 µM) it was 0.704; with Tivantinib + AZD7762 (first compound 0.1 µM), 0.619; with Tivantinib + AZD7762 (first compound 0.3162 µM), 0.28.

Take ABC-1: the relative viability with Crenolanib + Crizotinib (first compound 0.01 µM) amounted to 1.01; with Crenolanib + Crizotinib (first compound 0.03162 µM), 0.883; in the test with Crenolanib + Crizotinib (first compound 0.1 µM), 1.13; with Crenolanib + Crizotinib (first compound 0.3162 µM), 1.01; with Crenolanib + Crizotinib (first compound 1 µM) it was 1.19; with Crenolanib + Bortezomib (first compound 0.01 µM), 0.289. Moreover, the relative viability with Crenolanib + Bortezomib (first compound 0.03162 µM) was determined as 0.353; in the test with Crenolanib + Bortezomib (first compound 0.1 µM), 0.331; with Crenolanib + Bortezomib (first compound 0.3162 µM) it was 0.308; with Crenolanib + Bortezomib (first compound 1 µM), 0.253; with Tivantinib + Bortezomib (first compound 0.01 µM) it was 0.287; with Tivantinib + Bortezomib (first compound 0.03162 µM) it was 0.243. The relative viability with Tivantinib + Bortezomib (first compound 0.1 µM) is 0.337; with Tivantinib + Bortezomib (first compound 0.3162 µM) it was 0.301; with Tivantinib + AZD7762 (first compound 0.01 µM), 0.8; with Tivantinib + AZD7762 (first compound 0.03162 µM) it was 0.912; in the test with Tivantinib + AZD7762 (first compound 0.1 µM), 0.708; with Tivantinib + AZD7762 (first compound 0.3162 µM), 0.685.

As to NCI-H1651, the relative viability in the test with Crenolanib + Crizotinib (first compound 0.01 µM) turned out to be 0.895; with Crenolanib + Crizotinib (first compound 0.03162 µM) it was 0.924; with Crenolanib + Crizotinib (first compound 0.1 µM), 0.855; with Crenolanib + Crizotinib (first compound 0.3162 µM), 0.937; in the test with Crenolanib + Crizotinib (first compound 1 µM), 0.826; with Crenolanib + Bortezomib (first compound 0.01 µM) it was 0.982. Moreover, the relative viability with Crenolanib + Bortezomib (first compound 0.03162 µM) is 0.894; with Crenolanib + Bortezomib (first compound 0.1 µM), 0.904; with Crenolanib + Bortezomib (first compound 0.3162 µM) it was 0.926; with Crenolanib + Bortezomib (first compound 1 µM) it was 0.913; in the test with Tivantinib + Bortezomib (first compound 0.01 µM) it was 0.957; with Tivantinib + Bortezomib (first compound 0.03162 µM), 1.03. For the same cell line, the relative viability was found to be 0.918 with Tivantinib + Bortezomib (first compound 0.1 µM); 0.942 with Tivantinib + Bortezomib (first compound 0.3162 µM); 0.452 with Tivantinib + AZD7762 (first compound 0.01 µM); 0.404 with Tivantinib + AZD7762 (first compound 0.03162 µM); 0.437 with Tivantinib + AZD7762 (first compound 0.1 µM); 0.353 with Tivantinib + AZD7762 (first compound 0.3162 µM).
